# In paper PMC7884382, “A Phase 1 study of RO6870810, a novel bromodomain and extra-terminal protein inhibitor, in patients with NUT carcinoma, other solid tumours, or diffuse large B-cell lymphoma” (British Journal of Cancer, 2020):
# Where “and” joins values, the source holds several entries; their conditions need not be identical. Identical values can stand only once. Marks after values point to notes of the source that are not given here.
# What was measured:
# [1] = parameters: method as in NCT03068351; settings: Phase 1 monotherapy in multiple myeloma, 0.3, 0.45 and 0.6 mg/kg, same schedule; ref NCT03068351; cited from earlier work
# [2] = tested on: solid tumours; assay: Clinical activity in other solid tumours (RECIST v1.1); format: in vivo, human
# From the text: (§1) Evaluation of the anticancer activity of RO6870810 was a secondary objective, as measured by time to first and best response, overall response rate, progression-free survival (PFS), duration of response and overall survival. […] Responders were defined as patients who achieved a confirmed CR or partial response (PR). PFS was defined as the time from the date of first study drug administration to the first date of objectively determined progressive disease (PD) or death from any cause. PFS was censored at the date of the most recent objective progression-free observation for patients who were still alive at the time of analysis and without evidence of tumour progression. For patients who received subsequent anticancer therapy prior to objective disease progression or death, PFS was censored at the date of the last objective progression-free observation prior to the date of subsequent therapy.
# [3] = RO6870810 plasma pharmacokinetics; format: in vivo, human
# Protocol: The determination of RO6870810 PK was another secondary objective. RO6870810 plasma levels were measured during treatment and during the follow-up period. Venous blood samples were collected on multiple days during cycle 1 and on day 1 of subsequent cycles. Complete PK assessment parameters are included in the Supplementary Methods. Patients with sufficient data to determine PK parameters were included in the PK analysis population.
# Formal hypothesis testing was not performed for this Phase 1 study. The sample size was based on a standard 3 + 3 dose-escalation design and was considered sufficient to evaluate the safety and clinical activity of RO6870810. AEs were coded using the current Medical Dictionary for Regulatory Activities, and safety and clinical efficacy were summarised using descriptive statistics. The 95% CI for the objective response rate was calculated using Wilson’s score method with continuity correction, and PFS was analysed using the Kaplan–Meier method. For the PK analyses, key exposure parameters such as maximum plasma concentration (Cmax) and area under the curve were summarised with descriptive statistics, and dose-exposure relationships were plotted graphically. Percentage changes in CD11b from baseline by flow cytometry were summarised with descriptive statistics and plotted over time. The relationship between percentage change from baseline in CD11b (average of three measurements taken pre-dose, at 2 h and at 4 h) on day 15 and the RO6870810 dose was plotted. To investigate the relationship between individual percentage changes in CD11b from baseline and RO6870810 concentration on day 15, the nonparametric regression LOESS curve fitting (locally weighted scatterplot smoothing) method was applied.
# RO6870810 plasma concentrations were assessed in blood samples collected as follows:
# Cycle 1, day 1: Blood samples were collected before and immediately after injection and 0.25, 0.5, 1, 2, 4, 6, 8, and 10 hours after the injection was completed
# Cycle 1, day 2: Blood samples were collected 24 hours (pre-dose) and 28 hours (4 hours after receiving a second dose) after the injection on day 1 was completed
# Cycle 1, day 8: A blood sample was drawn at the visit as a random value
# Cycle 1, day 15: Blood samples were drawn before and immediately after injection and 0.25, 0.5, 1, 2, and 4 hours after the injection was completed
# Cycle 1, day 22: Blood samples were drawn at the visit as a random value (28-day treatment cycle only)
# Cycle X, day 1: On day 1 of all cycles after cycle 1, blood samples were drawn as a random value during the study visit
# A blood sample was drawn as a random value during the end-of-treatment visit on early termination
# [4] = tested on: diffuse large B-cell lymphoma (DLBCL); assay: Clinical activity in DLBCL sub-study (Lugano classification); format: in vivo, human
# From the text: as §1, with “survival. […] Scans could also be obtained after one cycle following a study amendment.” for “survival.”
# [5] = Solid tumours, % of n = 42 with non-missing best response
# [6] = solid tumours, of 42 patients with non-missing data
# [7] = DLBCL, % of n = 13 with non-missing best response
smiles,measurement,setting,value
Cc1sc2c(c1C)C(c1ccc(Cl)cc1)=N[C@@H](CC(=O)NCCCN1CCN(C)CC1)c1nnc(C)n1-2 [RO6870810],Grade 3–4 thrombocytopenia,[1],observed in a substantial proportion of patients
same,Complete response,[2]; Solid tumours (n = 47),0 n (%)
same,Median time to first response (min-max),[2]; Solid tumours (n = 47),56.0 days
same,Missing response (no postbaseline tumour assessment),[2]; Solid tumours (n = 47),5 n (%)
same,Unknown response,[2]; Solid tumours (n = 47),1 (2.4)^b n (%)
same,Partial response,[2]; [5],1 (2.4)^c n (%)
same,Progressive disease,[2]; [5],15 (35.7)^c n (%)
same,Stable disease,[2]; [5],25 (59.5)^c n (%)
same,Patients with PD as best response,[2]; adenocarcinoma pancreas,1 n
same,Patients with PD as best response,[2]; breast cancer,2 n
same,Patients with SD as best response,[2]; breast cancer,2 n
same,Patients with PD as best response,[2]; colorectal cancer,4 n
same,Patients with SD as best response,[2]; colorectal cancer,5 n
same,Patients with an unknown response,[2]; colorectal cancer,a patient
same,Patients with PD as best response,[2]; endometrial cancer,1 n
same,Patients with PD as best response,[2]; fallopian tube cancer,1 n
same,Patients with PD as best response,[2]; gastrointestinal stromal tumour,1 n
same,Patients with SD as best response,[2]; hepatic cancer,1 n
same,Patients with PD as best response,[2]; non-small cell lung cancer,1 n
same,Patients with SD as best response,[2]; non-small cell lung cancer,1 n
same,Patients with SD as best response,[2]; oesophageal carcinoma,1 n
same,Patients with PD as best response,[2]; ovarian cancer,1 n
same,Patients with SD as best response,[2]; ovarian cancer,2 n
same,Patients with PD as best response,[2]; pancreatic cancer,1 n
same,Patients with SD as best response,[2]; pancreatic cancer,1 n
same,Tumour reduction at nadir,[2]; patient with acinic cell carcinoma of the parotid gland,46.8%
same,Tumour reduction at PR,"[2]; patient with acinic cell carcinoma of the parotid gland, after two cycles, at 57 days",> 40%
same,Patients with PD as best response,[2]; poorly differentiated carcinoma of unknown origin,1 n
same,Patients with SD as best response,[2]; prostate cancer,7 n
same,Patients with PR as best response,[2]; salivary gland cancer,a patient
same,Patients with SD as best response,[2]; salivary gland cancer,4 n
same,Median PFS,"[2]; solid tumours, 47 patients",90 days
same,PFS range,"[2]; solid tumours, 47 patients",9 to 315 days
same,Objective response rate,"[2]; solid tumours, n = 1 of 47, 95% CI, 0%–13%",2%
same,PD as best response,[2]; [6],36%
same,PR as best response,[2]; [6],2%
same,Patients with PD as best response,[2]; squamous cell carcinoma,1 n
same,Patients with SD as best response,[2]; uterine cancer,1 n
same,Dose-exposure relationship (Cmax and area under the curve over 24 h),"[3]; 0.03-0.65 mg/kg, cycle 1, day 1",dose-proportional
same,Absorption,"[3]; SC, across dose levels",rapid absorption
same,Time to Cmax,"[3]; SC, days 1 and 15 of cycle 1",≤ 1 h
same,"Time to Cmax, median","[3]; SC, days 1 and 15 of cycle 1",0.5 h
same,half-life,"[3]; human, plasma, sc",≥ 10 h
same,Clearance,[3]; in vivo,bodyweight dependent
same,Interpatient variability of Cmax,[3]; in vivo,38%
same,Interpatient variability of area under the curve over 24 h,[3]; in vivo,38%
same,Metabolites in plasma,[3]; leftover plasma samples screened,no metabolites were found
same,Complete response,[4]; DLBCL (n = 19),0 n (%)
same,Median time to first response (min-max),[4]; DLBCL (n = 19),45.0 (41–49) days
same,Missing response (no postbaseline tumour assessment),[4]; DLBCL (n = 19),6 n (%)
same,Unknown response,[4]; DLBCL (n = 19),0 n (%)
same,Median PFS,"[4]; DLBCL, 19 patients",29 days
same,PFS range,"[4]; DLBCL, 19 patients",18 to 708 days
same,Objective response rate,"[4]; DLBCL, n = 2 of 19, 95% CI, 2–35%",11% and 10.5%
same,Partial response,[4]; [7],2 (15.4)^d n (%)
same,Progressive disease,[4]; [7],7 (53.8)^d n (%)
same,Stable disease,[4]; [7],4 (30.8)^d n (%)
same,PR as best response,"[4]; DLBCL, n = 2 of 13 with non-missing data",15%
same,PD as best response,"[4]; DLBCL, n = 7 of 13 with non-missing data",54%
same,Decrease in target tumour volume (PR),"[4]; person, GCB DLBCL, 0.45 mg/kg 21 of 28 days, after cycle 1",55%
same,Reduction from baseline in target tumour volume,"[4]; person, GCB DLBCL, end of cycle 2 (PD by objective criteria)",64%
